Measured values reported in patent US8501755B2, “Tetrahydropyridothienopyrimidine compounds and methods of use thereof” (Bayer Intellectual Property GmbH, priority 2006, dated 2013).

Key:
Type in all cases: cell-based
H1975 cells = test: In vitro tumor cell proliferation assay (Cell Titer-Glo) in H1975 cells; settings: NCI-H1975; H1975 human NSCLC expressing mutant HER1 (L858R,T790M); 72 hours exposure; read-out: IC50, activities in H 1975 cell lines
Method in brief: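 After 72 h compound exposure at 37° C (top 10 uM down to 64 pM, 0.1% DMSO), viability of EGFR L858R/T790M-mutant H1975 cells was read as ATP luminescence.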

N87 = test: In vitro tumor cell proliferation assay (Cell Titer-Glo) in N87 cells; settings: N87 human gastric carcinoma overexpressing HER2 and HER1; 72 hours exposure; read-out: IC50, activities in N87 cell lines
Method in brief: (§1)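 Viability after 72 h drug exposure at 37 °C was read as CellTiter-Glo ATP luminescence, giving IC50. Cells (2.5×10^3/well, RPMI + 10% FBS) were compound-treated one day post-seeding, 0.1% DMSO final: A431 overexpresses HER1, N87 overexpresses HER2 and HER1.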

A431 cells = test: In vitro tumor cell proliferation assay (Cell Titer-Glo) in A431 cells; settings: Homo sapiens, A-431, 72 h, A431 human epidermoid carcinoma overexpressing HER1; 72 hours exposure; read-out: IC50, activities in A431 cell lines
Method in brief: as §1

| IC50 (H1975 cells) [nM] | IC50 (N87) [nM] | IC50 (A431 cells) [nM] | Structure (SMILES) |
| --- | --- | --- | --- |
| 1000 to 10000 | < 200 | 1000 to 10000 | CN(C)C/C=C/C(=O)N1CCc2c(sc3ncnc(Nc4ccc(F)cc4)c23)C1 [Example 175, 7-[(2E)-4-(dimethylamino)but-2-enoyl]-N-(4-fluorophenyl)-5,6,7,8-tetrahydropyrido [4′,3′:4,5]thieno[2,3-d]pyrimidin-4-amine] |
| 200 to 1000 | < 200 | 200 to 1000 | CN(C)C/C=C/C(=O)N1CCc2c(sc3ncnc(Nc4ccc(F)c(Br)c4)c23)C1 [Example 176, N-(3-bromo-4-fluorophenyl)-7-[(2E)-4-(dimethylamino)but-2-enoyl]-5,6,7,8-tetrahydropyrldo [4′,3′:4,5]thieno[2,3-d]pyrimidin-4-amine] |
| 1000 to 10000 | < 200 | 1000 to 10000 | Cc1cccc(Nc2ncnc3sc4c(c23)CCN(C(=O)/C=C/CN(C)C)C4)c1 [Example 177, 7-[(2E)-4-(dimelhylamino)but-2-enoyl]-N-(3-methylphenyl)-5,6,7,8-tetrahydropyrido [4′,3′:4,5]thieno[2,3-d]pyrimidin-4-amine] |
| 1000 to 10000 | < 200 | 200 to 1000 | CN(C)C/C=C/C(=O)N1CCc2c(sc3ncnc(Nc4ccc(Cl)c(F)c4)c23)C1 [Example 180, N-(4-chloro-3-fluorophenyl)-7-[(2E)-4-(dimethylamino)but-2-enoyl]-5,6,7,8-tetrahydropyrido [4′,3′:4,5]thieno[2,3-d]pyrimidin-4-amine] |
| 1000 to 10000 | < 200 | 1000 to 10000 | CN(C)C/C=C/C(=O)N1CCc2c(sc3ncnc(Nc4cc(F)cc(Cl)c4)c23)C1 [Example 181, N-(3-chloro-5-fluorophenyl)-7-[(2E)-4-(dimethylamino)but-2-enoyl]-5,6,7,8-tetrahydropyrido [4′,3′:4,5]thieno[2,3-d]pyrimidin-4-amine] |
| 1000 to 10000 | < 200 | 200 to 1000 | Cc1cc(Nc2ncnc3sc4c(c23)CCN(C(=O)/C=C/CN(C)C)C4)ccc1F [Example 182, 7-[(2E)-4-(dimethylamino)but-2-enoyl]-N-(4-fluoro-3-methylphenyl)-5,6,7,8-tetrahydropyrido [4′,3′:4,5]thieno[2,3-d]pyrimidin-4-amine] |
| < 200 | < 200 | 200 to 1000 | Cc1cc(Nc2ncnc3sc4c(c23)CCN(C(=O)/C=C/CN(C)C)C4)ccc1Cl [Example 183, N-(4-chloro-3-methylphenyl)-7-[(2E)-4-(dimethylamino)but-2-enoyl]-5,6,7,8-tetrahydropyrido [4′,3′:4,5]thieno[2,3-d]pyrimidin-4-amine] |

Continued, compound first:

| Structure (SMILES) | IC50 (H1975 cells) [nM] | IC50 (N87) [nM] | IC50 (A431 cells) [nM] |
| --- | --- | --- | --- |
| CCc1cccc(Nc2ncnc3sc4c(c23)CCN(C(=O)/C=C/CN(C)C)C4)c1 [Example 178, 7-[(2E)-4-(dimethylamino)but-2-enoyl]-N-(3-ethylphenyl)-5,6,7,8-tetrahydropyrido [4′,3′:4,5]thieno[2,3-d]pyrimidin-4-amine] | 1000 to 10000 | < 200 | 1000 to 10000 |
| COc1cccc(Nc2ncnc3sc4c(c23)CCN(C(=O)/C=C/CN(C)C)C4)c1 [Example 179, 7-[(2E)-4-(dimethylamino)but-2-enoyl]-N-(3-methoxyphenyl)-5,6,7,8-tetrahydropyrido [4′,3′:4,5]thieno[2,3-d]pyrimidin-4-amine] | 1000 to 10000 | < 200 | 1000 to 10000 |
| CN(C)C/C=C/C(=O)N1CCc2c(sc3ncnc(Nc4ccc(Br)cc4)c23)C1 [Example 184, N-(4-bromophenyl)-7-[(2E)-4-(dimethylamino)but-2-enoyl]-5,6,7,8-tetrahydropyrido [4′,3′:4,5]thieno[2,3-d]pyrimidin-4-amine.] | 1000 to 10000 | < 200 | 200 to 1000 |
| CN(C)C/C=C/C(=O)N1CCc2c(sc3ncnc(Nc4ccc5c(c4)CCC5)c23)C1 [Example 185, N-(2,3-dihydro-1H-inden-5-yl)-7-[(2E)-4-(dimethylamino)but-2-enoyl]-5,6,7,8-tetrahydropyrido [4′,3′:4,5]thieno[2,3-d]pyrimidin-4-amine] | 1000 to 10000 | < 200 | 200 to 1000 |
| CCN(C)C/C=C/C(=O)N1CCc2c(sc3ncnc(Nc4cccc(Br)c4)c23)C1 [Example 186, N-(3-bromophenyl)-7-{(2E)-4-[ethyl(methyl)amino]but-2-enoyl}-5,6,7,8-tetrahydropyrido [4′,3′:4,5]thieno[2,3-d]pyrimidin-4-amine] | 200 to 1000 | < 200 | 200 to 1000 |
| CC(C)N(C)C/C=C/C(=O)N1CCc2c(sc3ncnc(Nc4ccc(Cl)c(Cl)c4)c23)C1 [Example 187, N-(3,4-dichlorophenyl)-7-{(2E)-4-[isopropyl(methyl)amino]but-2-enoyl}-5,6,7,8-tetrahydropyrido[4′,3′:4,5]thieno[2,3-d]pyrimidin-4-amine] | < 200 | < 200 | 200 to 1000 |
| CCN(CC)C/C=C/C(=O)N1CCc2c(sc3ncnc(Nc4ccc(Cl)c(Cl)c4)c23)C1 [Example 188, N-(3,4-dichlorophenyi)-7-[(2E)-4-(diethylamino)but-2-enoyl]-5,6,7,8-tetrahydropyrido [4′,3′:4,5]thieno[2,3-d]pyrimidin-4-amine] | 200 to 1000 | < 200 | 200 to 1000 |
| CC(C)N(C)C/C=C/C(=O)N1CCc2c(sc3ncnc(Nc4cccc(Br)c4)c23)C1 [Example 189, N-(3-bromophenyl)-7-{(2E)-4-[isopropyl(methyl)amino]but-2-enoyl}-5,6,7,8-tetrahydropyrido [4′,3′:4,5]thieno[2,3-d]pyrimidin-4-amine] | 200 to 1000 | < 200 | 200 to 1000 |
| CCN(C)C/C=C/C(=O)N1CCc2c(sc3ncnc(Nc4ccc(Cl)c(Cl)c4)c23)C1 [Example 190, N-(3,4-dichlorophenyl)-7-{(2E)-4-[ethyl(methyl)amino]but-2-enoyl}-5,6,7,8-tetrahydropyrido [4′,3:4,5]thieno[2,3-d]pyrimidin-4-amine] | 200 to 1000 | < 200 | 200 to 1000 |
| O=C(/C=C/CN1CCOCC1)N1CCc2c(sc3ncnc(Nc4ccc(Cl)c(Cl)c4)c23)C1 [Example 191, N-(3,4-dichlorophenyl)-7-[{2E)-4-morpholin-4-ylbut-2-enoyl]-5,6,7,8-tetrahydropyrido [4′,3′:4,5]thieno[2,3-d]pyrimidin-4-amine] | 1000 to 10000 | < 200 | 200 to 1000 |
| O=C(/C=C/CN1CCCC1)N1CCc2c(sc3ncnc(Nc4ccc(Cl)c(Cl)c4)c23)C1 [Example 192, N-(3,4-dichlorophenyl)-7-[(2E)-4-pyrrolidin-1-ylbut-2-enoyl]-5,6,7,8-tetrahydropyrido [4′,3′:4,5]thieno[2,3-d]pyrimidin-4-amine] | 200 to 1000 | < 200 | 200 to 1000 |
| O=C(/C=C/CN1CCOCC1)N1CCc2c(sc3ncnc(Nc4cccc(Br)c4)c23)C1 [Example 193, N-(3-bromophenyl)-7-[(2E)-4-morpholin-4-ylbut-2-enoyl]-5,6,7,8-tetrahydropyrido [4′,3′:4,5]thieno[2,3-d]pyrimidin-4-amine] | 1000 to 10000 | < 200 | 1000 to 10000 |
